According to patent publication US20260069599A1, “INHIBITORS OF BROMODOMAIN-CONTAINING PROTEIN 4 AND PHOSPHOINOSITIDE 3-KINASE” (Board of Regents of the University of Nebraska, priority 2022, published 2026):

What was measured:
BRD4-BD2 [1] = target: T1, BRD4-BD2 (Homo sapiens, UniProt O60885); experiment: Protein Thermal Shift (PTS) assay on BRD4-BD2; assay type: binding; set-up: polyhistidine (N, cleaved yes); made in house; host or cells: E. coli (T7 express); conditions: 100 μM ligand, 20 μM BD protein; thermal destabilization
Procedure: The genes encoding human BRD2-BD1, BRD2-BD2, and BRD4-BD2 were codon-optimized for expression in E. coli. […] The sequence-confirmed plasmids were used to transform T7 express E coli. Large-scale cell cultures were grown in LB media containing […] carbenicillin and incubated with shaking at 37° C. until the OD600 nm reached 0.6. Then cultures were cooled to 16° C., and 1 mM isopropyl β-D-1-thiogalactopyranoside was added to induce the protein expression. After 20 hours of incubation, cells were harvested. The resulting cell pellet was resuspended in a lysis buffer containing 50 mM Tris pH 7.5, 200 mM NaCl, 0.5 mM imidazole, and 0.3 mM tris(2-carboxyethyl) phosphine (TECP). After the addition of DNase I and lysozyme, the cell suspension was incubated on ice for 30 minutes and lysed by sonication. The lysate was clarified by centrifugation at 12,000 rpm for 45 minutes. The resulting supernatant was applied to a 5 mL metal affinity cobalt column pre-equilibrated with lysis buffer. Then, 25 column volumes of lysis buffer were passed through the column to eliminate unbound E coli proteins. Recombinant protein was eluted isocratically with the elution buffer containing 50 mM Tris pH 7.5, 200 mM NaCl, 150 mM imidazole, and 0.3 mM TECP. The rhinovirus 3C protease was added to the eluted recombinant protein to cleave the N-terminal Histidine tag and the sample dialyzed against a buffer containing 50 mM Tris pH 7.5, 100 mM NaCl and 0.3 mM TECP. After 12 hours, the protein solution was passed through a 5 ml cobalt column, which was pre-equilibrated with dialysis buffer, and the recombinant protein lacking the His-tag was collected from the flowthrough.
Each reaction used 20 μM concentration of recombinant BD protein in a 50 mM Tris pH 7.5 buffer containing 100 mM NaCl, 0.3 mM tris(2-carboxyethyl) phosphine HCl, and 1% dimethyl sulfoxide. Protein Thermal Shift Dye (ThermoFisher) was also added at 1× concentration. Under these conditions, 3 protein melting curves with each respective BD and 100 μM final concentration of ligand were performed from 25 to 95° C. with a ramp rate of 0.5° C./minute. Evaluation of the derivative of the fluorescence signal employed the Applied Bioscience Protein Thermal Shift Software version 1.3 to determine the average melting temperature (Tm) for each sample and the standard deviation(s) of those Tm values.

BRD4-BD1 = target: T2, BRD4-BD1 (Homo sapiens, UniProt O60885); conditions: relative to SF2523; cited from earlier work
T2 construct: tested against BRD4-BD1 and BRD4-BD2 using a peptide-displacement assay

BRD4-BD2 [2] = target: T1, BRD4-BD2; set-up: tested against BRD4-BD1 and BRD4-BD2 using a peptide-displacement assay; conditions: relative to SF2523; cited from earlier work

O=c1c(N2CCOCC2)nc(Br)c2n1CCc1ccccc1-2 [MDP3, 1-bromo-3-morpholino-6,7-dihydro-4H-pyrazino [2,1-a]isoquinolin-4-one]
BRD4-BD2 Tm decrease (BRD4-BD2 [1]): 1.3 °C

O=c1cc(N2CCOCC2)oc2c(Br)cccc12 [MDP4, 8-bromo-2-morpholino-4H-chromen-4-one]
BRD4-BD2 Tm decrease (BRD4-BD2 [1]): 0.6 °C

O=C(NCc1cccnc1)c1cc(-c2csc3c(=O)cc(N4CCOCC4)oc23)cc2c1OCCO2 [SRX3212]
better binding affinity than SF2523 for BRD4-BD1 (BRD4-BD1): 65 fold | better binding affinity than SF2523 for BRD4-BD2 (BRD4-BD2 [2]): 48 fold
